In ChEMBL document CHEMBL1201862, “PubChem BioAssay data set” (2004):
Activity calls are given as the source filed them.

Columns and labels:
Melanocortin receptor 4 = Melanocortin receptor 4 (Homo sapiens, UniProt P32245); assay: MC4R antagonist potency on cAMP, dose response, cell-based, TR-FRET, biased antagonists (AID 602298); format: functional;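 note: antagonist potency against agonist-stimulated cAMP production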
[1] = nonselective inhibitors of cellular cAMP signaling, dose response, counter-screen for MC4R biased antagonist project, cell-based, TR-FRET cAMP detection (AID 602305); format: functional;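 note: U2OS cells stimulated with forskolin near its EC80 as the cAMP inducer; potency is for inhibition of forskolin-stimulated cAMP signaling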
P388 = assay: cells; format: functional; settings: Mus musculus
SN12K1 = assay: cells; format: functional; settings: Homo sapiens
P388/ADR = assay: cells; format: functional; settings: Mus musculus, P388/ADR
Cysteine protease ATG4B = target: T1, Cysteine protease ATG4B (Homo sapiens, UniProt Q9Y4P1); format: functional;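 note: Fluorescence-based dose-response confirmation assay measuring inhibition of ATG4B activity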
T1 sequence (Q9Y4P1 whole entry): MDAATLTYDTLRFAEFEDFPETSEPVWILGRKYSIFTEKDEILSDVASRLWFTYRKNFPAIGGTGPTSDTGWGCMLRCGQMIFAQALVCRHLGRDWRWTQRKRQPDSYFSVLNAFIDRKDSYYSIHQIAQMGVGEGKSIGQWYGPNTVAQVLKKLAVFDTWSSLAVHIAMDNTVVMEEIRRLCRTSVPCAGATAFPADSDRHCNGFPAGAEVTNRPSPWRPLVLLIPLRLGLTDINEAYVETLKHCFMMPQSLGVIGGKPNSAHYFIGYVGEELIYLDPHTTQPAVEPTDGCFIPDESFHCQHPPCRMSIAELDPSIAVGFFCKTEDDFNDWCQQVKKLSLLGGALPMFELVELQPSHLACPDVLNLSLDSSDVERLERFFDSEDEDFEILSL

[2] = target: T2, Carboxy-terminal domain RNA polymerase II polypeptide A small phosphatase 1 (Homo sapiens, UniProt Q9GZU7); assay: inhibitors of CTDSP1, concentration-response testing, biochemical assay, absorbance-based, actives from ultra-high-throughput screening (AID 540297); format: functional
T2 sequence (Q9GZU7 whole entry): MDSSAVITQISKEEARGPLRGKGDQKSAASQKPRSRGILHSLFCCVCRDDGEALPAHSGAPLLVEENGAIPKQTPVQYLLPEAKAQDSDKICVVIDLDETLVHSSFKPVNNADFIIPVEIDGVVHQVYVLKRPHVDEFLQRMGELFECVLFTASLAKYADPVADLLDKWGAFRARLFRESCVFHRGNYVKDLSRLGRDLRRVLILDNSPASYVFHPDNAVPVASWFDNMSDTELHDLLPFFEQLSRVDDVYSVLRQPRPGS

Leucine aminopeptidase = target: T3, Leucine aminopeptidase (Plasmodium falciparum 3D7, UniProt Q8IL11); assay: P. falciparum M17LAP inhibitors, primary screen, biochemical, fluorogenic H-Leu-NHMec substrate, 1536-well (AID 1619); format: functional
T3 sequence (Q8IL11 whole entry): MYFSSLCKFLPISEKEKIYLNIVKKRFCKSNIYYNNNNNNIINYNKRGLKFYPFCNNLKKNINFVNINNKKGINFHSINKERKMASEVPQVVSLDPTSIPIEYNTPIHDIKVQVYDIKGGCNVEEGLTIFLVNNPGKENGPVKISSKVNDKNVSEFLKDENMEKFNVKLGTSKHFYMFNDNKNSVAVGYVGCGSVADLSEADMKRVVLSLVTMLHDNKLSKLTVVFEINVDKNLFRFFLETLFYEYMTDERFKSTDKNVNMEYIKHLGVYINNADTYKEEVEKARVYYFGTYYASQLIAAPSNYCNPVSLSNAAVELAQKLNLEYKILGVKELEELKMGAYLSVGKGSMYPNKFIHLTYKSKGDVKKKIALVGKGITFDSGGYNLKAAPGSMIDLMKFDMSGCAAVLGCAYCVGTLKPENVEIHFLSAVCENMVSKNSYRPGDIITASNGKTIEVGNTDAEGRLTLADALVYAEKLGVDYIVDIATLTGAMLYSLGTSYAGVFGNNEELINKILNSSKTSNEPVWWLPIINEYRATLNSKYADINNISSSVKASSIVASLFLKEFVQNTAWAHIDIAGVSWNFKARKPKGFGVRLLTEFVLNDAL

Phospholipase A2 = Phospholipase A2 (Homo sapiens, UniProt P04054); format: functional;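 note: confirmatory dose-response counterscreen on phospholipase A2, testing hits that came from an ultra-high-throughput screen for ATG4B inhibitors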
Chain of Phospholipase A2 (P04054 whole entry): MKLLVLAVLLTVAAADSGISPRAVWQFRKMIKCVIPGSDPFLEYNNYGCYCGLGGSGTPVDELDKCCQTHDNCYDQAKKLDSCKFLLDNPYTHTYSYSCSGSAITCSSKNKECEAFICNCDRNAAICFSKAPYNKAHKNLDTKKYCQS

Streptokinase A = target: T4, Streptokinase A (Streptococcus pyogenes serotype M1, UniProt P10520); assay: S. pyogenes streptokinase expression inhibitors, potency, dose response, plasminogen activation absorbance, OD405 (AID 1914); format: functional, Streptococcus pyogenes M1 GAS;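 note: secreted streptokinase activity via plasminogen activation per viability signal from cell pellet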
T4 sequence (P10520 whole entry): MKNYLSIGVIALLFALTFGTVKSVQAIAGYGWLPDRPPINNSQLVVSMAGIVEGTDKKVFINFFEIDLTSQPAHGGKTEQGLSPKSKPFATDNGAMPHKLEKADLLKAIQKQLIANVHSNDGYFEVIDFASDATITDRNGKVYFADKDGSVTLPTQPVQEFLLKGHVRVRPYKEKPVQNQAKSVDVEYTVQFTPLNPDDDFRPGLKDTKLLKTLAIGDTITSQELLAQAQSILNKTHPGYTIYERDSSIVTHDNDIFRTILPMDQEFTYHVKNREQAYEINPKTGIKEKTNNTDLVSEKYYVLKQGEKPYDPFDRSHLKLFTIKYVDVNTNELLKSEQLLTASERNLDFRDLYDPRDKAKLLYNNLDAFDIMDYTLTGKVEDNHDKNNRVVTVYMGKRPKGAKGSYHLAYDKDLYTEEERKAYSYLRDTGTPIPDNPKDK

[3] = system: Streptococcus sp. 'group A'; assay: growth inhibition of control SK(-) GAS strain, dose response, counter-screen for streptokinase expression inhibitor project, luminescence, kanamycin, BacTiterGlo, confirmation (AID 1900); format: functional, organism-based
Streptococcus = assay: Group A Streptococcus viability loss, dose response, counter-screen for streptokinase expression inhibitor project, luminescence, BacTiterGlo (AID 1915); format: functional, organism-based;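 note: potency for reduction of bacterial viability or growth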
[4] = NIH-3T3 fibroblast cytotoxicity, dose response, cytotoxicity control, cell-based, fluorescence, Alamar Blue, secondary assay (AID 2327); format: functional;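 note: NIH-3T3 mouse fibroblasts cultured with fluconazole at 8 µg/mL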
[5] = target: T5, Corticotropin-releasing factor receptor 2/Corticotropin-releasing factor-binding protein (Homo sapiens, UniProt P24387+Q13324); assay: activators of CRF receptor 2 with binding protein – uHTS hits, confirmation (AID 602473); format: functional; settings: read-out: EC50_Mean
T5 sequence (Q13324 whole entry): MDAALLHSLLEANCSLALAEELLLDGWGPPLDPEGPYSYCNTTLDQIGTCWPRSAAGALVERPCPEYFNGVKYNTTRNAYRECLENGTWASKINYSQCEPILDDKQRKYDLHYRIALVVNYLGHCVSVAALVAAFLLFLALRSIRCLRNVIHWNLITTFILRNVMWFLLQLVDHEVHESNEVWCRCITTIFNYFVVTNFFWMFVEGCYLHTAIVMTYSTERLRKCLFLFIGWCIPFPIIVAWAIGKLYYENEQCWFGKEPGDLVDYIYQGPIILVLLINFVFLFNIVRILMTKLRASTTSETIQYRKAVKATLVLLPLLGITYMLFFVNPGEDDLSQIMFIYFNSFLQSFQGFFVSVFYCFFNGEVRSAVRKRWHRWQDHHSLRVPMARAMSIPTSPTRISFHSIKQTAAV
T5 sequence (P24387 whole entry): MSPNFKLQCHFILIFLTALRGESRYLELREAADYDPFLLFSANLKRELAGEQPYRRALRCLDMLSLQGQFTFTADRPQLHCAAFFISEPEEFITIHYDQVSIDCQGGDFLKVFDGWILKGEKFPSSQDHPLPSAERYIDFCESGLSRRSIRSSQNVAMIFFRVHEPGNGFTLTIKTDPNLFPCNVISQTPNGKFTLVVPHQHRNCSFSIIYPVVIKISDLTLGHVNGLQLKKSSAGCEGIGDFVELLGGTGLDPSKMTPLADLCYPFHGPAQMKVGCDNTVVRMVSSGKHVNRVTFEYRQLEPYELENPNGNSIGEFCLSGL

[6] = C. albicans growth with fluconazole, confirmation, fluorescence, retest (AID 2467); format: functional, cell-based
[7] = CRF-BP/CRF-R2 complex antagonists, dose response, cell-based, uHTS hits, 384-well (AID 651639); format: functional, Homo sapiens; settings: read-out: IC50_Mean
[8] = target: T5, Corticotropin-releasing factor receptor 2/Corticotropin-releasing factor-binding protein; assay: Dose Response confirmation of uHTS hits for small molecule antagonists of the CRF-binding protein and CRF-R2 receptor complex.; format: functional; settings: read-out: IC50_Mean
[9] = target: T6, Tyrosine-protein phosphatase non-receptor type 7 (Homo sapiens, UniProt P35236); assay: inhibitors of human HePTP phosphatase, […], biochemical, absorbance, leukemia target (AID 521); format: functional
T6 sequence (P35236 whole entry): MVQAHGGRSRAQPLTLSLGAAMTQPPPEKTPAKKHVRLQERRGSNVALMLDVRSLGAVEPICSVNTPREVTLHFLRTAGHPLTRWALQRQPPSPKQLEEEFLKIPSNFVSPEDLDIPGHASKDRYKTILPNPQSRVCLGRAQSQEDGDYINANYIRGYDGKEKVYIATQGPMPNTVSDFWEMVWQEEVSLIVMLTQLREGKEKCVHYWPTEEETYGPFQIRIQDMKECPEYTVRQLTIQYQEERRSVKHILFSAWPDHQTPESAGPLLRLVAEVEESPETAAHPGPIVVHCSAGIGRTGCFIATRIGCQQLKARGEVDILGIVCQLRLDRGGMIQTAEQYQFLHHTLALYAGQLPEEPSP

[10] = target: Disintegrin and metalloproteinase domain-containing protein 17 (Homo sapiens, UniProt P78536); assay: ADAM17 protease inhibitors, dose response, counter-screen for ADAM10 exosite inhibitor project, biochemical, quenched FRET substrate (AID 743253)
Chain of Disintegrin and metalloproteinase domain-containing protein 17 (P78536 whole entry, the tested form may be a part): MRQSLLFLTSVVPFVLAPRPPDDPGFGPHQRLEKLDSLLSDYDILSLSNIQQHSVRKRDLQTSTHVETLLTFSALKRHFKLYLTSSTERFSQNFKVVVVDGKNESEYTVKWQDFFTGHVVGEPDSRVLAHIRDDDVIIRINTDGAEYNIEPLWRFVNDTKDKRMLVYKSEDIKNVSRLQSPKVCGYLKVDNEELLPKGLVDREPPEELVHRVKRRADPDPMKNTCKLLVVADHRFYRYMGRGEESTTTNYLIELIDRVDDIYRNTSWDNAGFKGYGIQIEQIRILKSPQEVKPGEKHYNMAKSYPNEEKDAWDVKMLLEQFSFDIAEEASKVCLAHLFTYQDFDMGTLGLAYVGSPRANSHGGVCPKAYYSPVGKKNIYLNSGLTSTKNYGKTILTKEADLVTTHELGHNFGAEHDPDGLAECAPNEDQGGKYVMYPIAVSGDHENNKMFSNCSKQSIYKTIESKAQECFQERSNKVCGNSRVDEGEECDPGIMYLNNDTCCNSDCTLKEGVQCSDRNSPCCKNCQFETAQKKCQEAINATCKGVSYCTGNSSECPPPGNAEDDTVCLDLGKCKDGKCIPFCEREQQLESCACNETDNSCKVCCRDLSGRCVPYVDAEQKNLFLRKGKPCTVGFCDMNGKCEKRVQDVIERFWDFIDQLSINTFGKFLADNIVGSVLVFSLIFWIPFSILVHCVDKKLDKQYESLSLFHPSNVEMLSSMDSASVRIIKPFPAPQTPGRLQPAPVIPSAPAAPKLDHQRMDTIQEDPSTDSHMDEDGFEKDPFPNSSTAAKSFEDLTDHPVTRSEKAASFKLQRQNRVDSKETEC

[11] = HepG2 cell cytotoxicity, dose response, cytotoxicity control for Shn3 inhibitor project, CellTiter-Glo, cherry-picked (AID 624134); format: functional, cell-based
[12] = control 3'UTR Renilla luciferase suppression, dose response, counter-screen for Shn3 inhibitor project, cell-based, Clone20-Shn3RL, cherry-picked (AID 624133); format: functional
[13] = Shn3 3'UTR reporter inhibitors, dose response, cell-based, Clone20 osteoblasts, firefly luciferase, cherry-picked (AID 624132); format: functional;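 note: firefly luciferase luminescence from reporter carrying the Shn3 3'UTR in osteoblasts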
[14] = target: Heat shock protein HSP 90-alpha (Homo sapiens, UniProt P07900); format: functional, organism-based
Prothrombin = Prothrombin (Bos taurus, UniProt P00735); assay: thrombin inhibition, dose response, biochemical, fluorescence polarization, uHTS hits (AID 602369); format: functional
[15] = target: 26S proteasome non-ATPase regulatory subunit 14 (Homo sapiens, UniProt O00487); assay: inhibition of proteasome subunit RPN11 – biochemical, fluorescence polarization, uHTS hits, confirmation (AID 602368); format: functional
Chain of 26S proteasome non-ATPase regulatory subunit 14 (O00487 whole entry): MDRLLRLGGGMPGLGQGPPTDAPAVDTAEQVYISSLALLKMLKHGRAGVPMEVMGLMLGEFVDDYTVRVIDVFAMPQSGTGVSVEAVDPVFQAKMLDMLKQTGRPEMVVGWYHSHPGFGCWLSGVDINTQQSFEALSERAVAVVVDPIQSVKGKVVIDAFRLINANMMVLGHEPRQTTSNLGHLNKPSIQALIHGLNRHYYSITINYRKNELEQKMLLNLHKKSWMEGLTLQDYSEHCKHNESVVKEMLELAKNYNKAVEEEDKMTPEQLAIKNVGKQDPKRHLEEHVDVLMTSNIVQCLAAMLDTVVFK

[16] = target: 72 kDa type IV collagenase (Homo sapiens, UniProt P08253); assay: Dose Response validation of uHTS RPN11 inhibitor hits using a MMP-2 Fluorescence assay.; format: functional
Chain of 72 kDa type IV collagenase (P08253 whole entry): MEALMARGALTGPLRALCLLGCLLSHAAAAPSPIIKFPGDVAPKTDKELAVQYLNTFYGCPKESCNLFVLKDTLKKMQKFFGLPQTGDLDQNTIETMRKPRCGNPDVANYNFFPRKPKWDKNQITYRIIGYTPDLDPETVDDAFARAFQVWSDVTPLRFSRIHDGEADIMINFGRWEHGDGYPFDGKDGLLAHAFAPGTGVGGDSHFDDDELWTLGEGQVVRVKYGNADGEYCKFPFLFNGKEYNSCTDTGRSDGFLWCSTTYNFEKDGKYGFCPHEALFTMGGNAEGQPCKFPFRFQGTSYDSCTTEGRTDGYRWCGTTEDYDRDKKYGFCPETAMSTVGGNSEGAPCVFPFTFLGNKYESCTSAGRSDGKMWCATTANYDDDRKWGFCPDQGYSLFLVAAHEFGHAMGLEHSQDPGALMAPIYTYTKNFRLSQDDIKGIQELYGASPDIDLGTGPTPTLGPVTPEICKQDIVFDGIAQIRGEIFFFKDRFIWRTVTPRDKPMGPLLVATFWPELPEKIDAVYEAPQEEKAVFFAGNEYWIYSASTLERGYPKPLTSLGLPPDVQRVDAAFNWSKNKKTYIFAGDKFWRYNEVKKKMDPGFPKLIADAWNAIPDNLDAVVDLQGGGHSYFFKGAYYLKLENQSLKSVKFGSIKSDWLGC

Chain of Melanocortin receptor 4 (P32245 whole entry): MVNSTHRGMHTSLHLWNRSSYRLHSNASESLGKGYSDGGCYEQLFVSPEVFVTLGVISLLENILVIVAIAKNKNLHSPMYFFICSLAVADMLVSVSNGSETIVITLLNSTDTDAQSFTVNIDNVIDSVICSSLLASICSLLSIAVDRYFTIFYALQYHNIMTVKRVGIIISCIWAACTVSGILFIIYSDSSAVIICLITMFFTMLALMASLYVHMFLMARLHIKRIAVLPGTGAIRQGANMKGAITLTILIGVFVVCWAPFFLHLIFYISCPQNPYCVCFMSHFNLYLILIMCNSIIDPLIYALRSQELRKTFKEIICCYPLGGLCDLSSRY

Cc1ncn(-c2ccc(C(=O)Oc3ccccc3)cn2)n1
IC50 (Melanocortin receptor 4): > 64.5 µM (inactive)
IC50 [1]: > 64.5 µM (inactive)

N/C(=N\O)N/N=C/c1ccc2c(c1)OCCO2
GI50 (P388): 13.1 µM (inactive)
GI50 (SN12K1): 2.88 µM (inactive)
GI50 (P388/ADR): 12.8 µM (inactive)

O=[N+]([O-])c1cc(C(F)(F)F)cc2c1SC1=Nc3ccccc3CN12
GI50 (P388): > 100 µM (inactive)
GI50 (SN12K1): > 100 µM (inactive)
GI50 (P388/ADR): > 100 µM (inactive)

O=C(O)COc1ccccc1/C=C1\SC(=S)N(/N=C/c2ccccc2O)C1=O
IC50 (Cysteine protease ATG4B): 27.1 µM (inactive)
IC50 [2]: 8.53 µM (active)
IC50 (Leucine aminopeptidase): 21.3 µM (active)
IC50 (Phospholipase A2): 32.1 µM (inactive)

CC(C)C(Sc1nc(-c2ccccc2)cc(-c2ccccc2)c1C#N)C(=O)O (centres undefined)
IC50 (Cysteine protease ATG4B): 11.3 µM (active)
EC50 (Streptokinase A): 10.1 µM (active)
EC50 [3]: 7.77 µM (active)
EC50 (Streptococcus): 9.19 µM (active)
EC50 [4]: 26.8 µM (active)
EC50 [5]: 35.7 µM (active)
IC50 (Phospholipase A2): 9.87 µM (active)
EC50 [6]: 2.61 µM (active)
IC50 [7]: > 20 µM (inactive)
IC50 [8]: 6.76 µM (active)

COc1ccc(-c2n[nH]c(C(F)(F)F)c2-c2cc3ccccc3o2)c(O)c1
IC50 (Cysteine protease ATG4B): 9.42 µM (active)
IC50 (Phospholipase A2): 7.64 µM (active)
IC50 [9]: > 100 µM (not active)
IC50 [10]: > 69.5 µM (inactive)

Cc1n[nH]c2ccc(-c3cncc(OC[C@@H](N)Cc4c[nH]c5ccccc45)c3)cc12 [A-443654]
AC50 [11]: 7.4 µM (active)
AC50 [12]: 2.85 µM (active)
AC50 [13]: 1.77 µM (active)

N/C(=N/O)N/N=C\c1cc(Cl)cc(Cl)c1O
GI50 (P388): 0.0182 µM (active)
GI50 (SN12K1): 0.366 µM (active)
GI50 (P388/ADR): 0.998 µM (active)

COc1ccc(/C=C/C(=O)c2cc(Br)ccc(=O)c2O)cc1
AC50 [14]: 4.22 µM (active)

CCc1ccccc1OCC(=O)Nc1ccc(N2CCCC2)cc1C
IC50 (Prothrombin): 9.96 µM (active)
IC50 [15]: 46.2 µM (active)
IC50 [16]: 89 µM (active)

COCOc1ccc(OC)cc1
GI50 (P388): > 100 µM (inactive)
GI50 (SN12K1): > 100 µM (inactive)
GI50 (P388/ADR): > 100 µM (inactive)

CSCCC(NC(=O)c1ccc([N+](=O)[O-])cc1Cl)C(=O)OC(C)C(=O)NCc1ccco1 (centres undefined)
IC50 (Melanocortin receptor 4): > 64.6 µM (inactive)
IC50 [1]: 47.4 µM (inactive)

CCOC(=O)C1=C(Nc2ccc(OC)cc2)S/C(=C\c2ccc(-c3ccccc3C(=O)O)o2)C1=O
IC50 (Prothrombin): 13.1 µM (active)
IC50 [15]: 17.8 µM (active)
IC50 [16]: > 100 µM (inactive)
